Columns and labels:
HCC78 human NSCLC cells = assay: Western blot of cleaved caspase-3 (apoptosis) in HCC78 cells; conditions: 3-hour drug treatment
[1] = test system: SLC34A2-ROS dependent signaling (ROS, SHP2, STAT3, AKT, ERK1/2) in HCC78 cells; assay: Immunoblot of ROS mediated signal transduction in HCC78 cells; conditions: 3 hours of drug treatment
[2] = test system: 3T3-ROS engineered tumor models (CD74-ROS, SLC34A2-ROS (L), SLC34A2-ROS (S), FIG-ROS (L), FIG-ROS (S)); assay: Panel of ROS fusion engineered 3T3-ROS xenograft tumor models; conditions: PO BID, all five models, nude mice

C[C@@H](Oc1cc(-c2cnn(C3CCNCC3)c2)cnc1N)c1c(Cl)ccc(F)c1Cl [crizotinib, 3-[(R)-1-(2,6-dichloro-3-fluoro-phenyl)-ethoxy]-5-(1-piperidin-4-yl-1H-pyrazol-4-yl)-pyridin-2-ylamine]
induction of activated caspase-3 levels (HCC78 human NSCLC cells): significant dose-dependent induction
inhibition of ROS phosphorylation (activation loop) and downstream SHP2, STAT3, AKT and ERK1/2 [1]: dose dependently inhibited
cytoreductive effect in 3T3-ROS engineered tumor models [2]: significant cytoreductive effects

From patent US20160206608A1 (Pfizer Inc., priority 2011, published 2016)
